For one series, the target named is T1, APJ receptor (Homo sapiens, UniProt P35414).
T1 construct: expressed in transfected cells; host or cells: Human TRex cells (doxycycline-inducible)
T1 sequence (P35414 1-380): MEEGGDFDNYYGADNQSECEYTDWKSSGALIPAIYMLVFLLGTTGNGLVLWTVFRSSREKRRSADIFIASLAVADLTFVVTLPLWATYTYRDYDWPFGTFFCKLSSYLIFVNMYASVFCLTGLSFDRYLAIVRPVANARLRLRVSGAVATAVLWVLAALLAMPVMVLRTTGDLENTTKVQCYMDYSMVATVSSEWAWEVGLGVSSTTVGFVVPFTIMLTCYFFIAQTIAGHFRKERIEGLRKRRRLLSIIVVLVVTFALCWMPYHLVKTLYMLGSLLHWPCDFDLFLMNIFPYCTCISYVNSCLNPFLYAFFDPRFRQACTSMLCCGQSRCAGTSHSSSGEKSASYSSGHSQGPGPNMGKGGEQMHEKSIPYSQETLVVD
Kind of series: HTRF cAMP assay, inhibition of NKH477 stimulated cAMP in Human TRex cells expressing APJ upon doxycycline induction (APJ-hTREX). Format: cell-based. The conditions noted are these: for Ranking: class combining EC50 and % histamine; for percent intrinsic activity at 0.3 µM: read-out: % IA (@ 300 nM). The source says: HTRF (homogeneous time resolved fluorescence) is a technology developed by Cisbio Bioassays based on TR-FRET (time-resolved fluorescence resonance energy transfer). Cisbio Bioassays has developed a wide selection of HTRF-based assays compatible with whole cells, thereby enabling functional assays to run under more physiological conditions. The IP-One assays are competitive immunoassays using cryptate-labeled anti-IP1 monoclonal antibody and d2-labeled IP1. IP1 is a relatively stable downstream metabolite of IP3, and accumulates in cells following Gq receptor activation.
cAMP kits based on a competitive immunoassay using cryptate-labeled anti-cAMP antibody and d2-labeled cAMP were used to assay the effects of APJ compounds of the present invention. […] Cells are treated with […] doxycycline and seeded in all white 96 well plates @ 40 k/well overnight.

This note sets out measurements from patent US20150011466A1, “APJ Receptor Compounds” (priority 2012, published 2015).

Like-named read-outs stand apart in the source and are kept apart here. Where a SMILES comes first, the peptide text is derived from it. [ ]: non-standard residue; d: D form. The star is where a group is joined. Palmitoyl = CCCCCCCCCCCCCCCC(=O)*

A word on the EC50: it is the concentration at which the effect is half-maximal. As for `CCCCCCCCCCCCCCCC(=O)N[C@H](C(=O)N[C@H](C(=O)N[C@@H](Cc1ccccc1)C(=O)N[C@@H](CCCNC(=N)N)C(=O)N[C@@H](CO)C(=O)N[C@@H](CO)C(=O)N[C@@H](CCC(=O)O)C(=O)N[C@H](CCCCN)C(=O)N[C@@H](CCCNC(=N)N)C(=O)N[C@@H](Cc1c[nH]cn1)C(=O)N[C@@H](CO)C(=O)N[C@@H](C)C(=O)N[C@@H](CC(=O)O)C(=O)N[C@H](C(=O)N[C@@H](Cc1ccccc1)C(=O)N[C@H](C(N)=O)[C@@H](C)CC)[C@@H](C)CC)C(C)C)[C@@H](C)O` [Compound 14] (Palmitoyl-TVFRSSE[dK]RHSADIFI-NH2; C-terminus assumed), at APJ receptor, the Ranking entry is “**** (EC50 101-500 nM and % histamine<35%)”; the percent intrinsic activity at 0.3 µM came out at 74%. Further, the EC50 on APJ receptor (inhibition of NKH477 stimulated cAMP, APJ-hTREX cells, read-out: APJ-hTREX EC50) was 0.253 µM. In “Histimine (% vs. 48/40)”, the “Histimine (% vs. 48/40)” value was determined as 20%.
Regarding `CCCCCCCCCCCCCCCC(=O)N[C@H](C(=O)N[C@H](C(=O)N[C@@H](Cc1ccccc1)C(=O)N[C@@H](CCCNC(=N)N)C(=O)N[C@@H](CO)C(=O)N[C@@H](CO)C(=O)N[C@@H](CCC(=O)O)C(=O)N[C@H](CCCCN)C(=O)N[C@@H](CCCNC(=N)N)C(=O)N[C@@H](CCCNC(=N)N)C(=O)N[C@@H](CO)C(=O)N[C@@H](Cc1c[nH]cn1)C(=O)N[C@@H](CC(=O)O)C(=O)N[C@H](C(=O)N[C@@H](Cc1ccccc1)C(=O)N[C@H](C(N)=O)[C@@H](C)CC)[C@@H](C)CC)C(C)C)[C@@H](C)O` [Compound 15] (Palmitoyl-TVFRSSE[dK]RRSHDIFI-NH2), the percent intrinsic activity at 0.3 µM at APJ receptor was 77%. Also, the “Histimine (% vs. 48/40)” value in the series “Histimine (% vs. 48/40)” was determined as 103%.
In the same order, the values of `CCCCCCCCCCCCCCCC(=O)N[C@H](C(=O)N[C@H](C(=O)N[C@@H](Cc1ccccc1)C(=O)N[C@@H](CCCNC(=N)N)C(=O)N[C@@H](CO)C(=O)N[C@@H](CO)C(=O)N[C@@H](CCC(=O)O)C(=O)N[C@H](CCCCN)C(=O)N[C@@H](CCCNC(=N)N)C(=O)N[C@@H](CCCNC(=N)N)C(=O)N[C@@H](CO)C(=O)N[C@@H](C)C(=O)N[C@@H](Cc1c[nH]cn1)C(=O)N[C@H](C(=O)N[C@@H](Cc1ccccc1)C(=O)N[C@H](C(N)=O)[C@@H](C)CC)[C@@H](C)CC)C(C)C)[C@@H](C)O` [Compound 16] (Palmitoyl-TVFRSSE[dK]RRSAHIFI-NH2) are 63% and 107%.
Turning to `CCCCCCCCCCCCCCCC(=O)N[C@H](C(=O)N[C@H](C(=O)N[C@@H](Cc1ccccc1)C(=O)N[C@@H](CCCNC(=N)N)C(=O)N[C@@H](CO)C(=O)N[C@@H](CO)C(=O)N[C@@H](CCC(=O)O)C(=O)N[C@H](CCCCN)C(=O)N[C@@H](CCCNC(=N)N)C(=O)N[C@@H](CCCNC(=N)N)C(=O)N[C@@H](CO)C(=O)N[C@@H](C)C(=O)N[C@@H](CC(=O)O)C(=O)N[C@@H](Cc1c[nH]cn1)C(=O)N[C@@H](Cc1ccccc1)C(=O)N[C@H](C(N)=O)[C@@H](C)CC)C(C)C)[C@@H](C)O` [Compound 17] (Palmitoyl-TVFRSSE[dK]RRSADHFI-NH2), on APJ receptor, the percent intrinsic activity at 0.3 µM worked out at 83%. Also, the “Histimine (% vs. 48/40)” value in “Histimine (% vs. 48/40)” is 113%.
The matching figures for `CCCCCCCCCCCCCCCC(=O)N[C@H](C(=O)N[C@H](C(=O)N[C@@H](Cc1ccccc1)C(=O)N[C@@H](CCCNC(=N)N)C(=O)N[C@@H](CO)C(=O)N[C@@H](CO)C(=O)N[C@@H](CCC(=O)O)C(=O)N[C@H](CCCCN)C(=O)N[C@@H](CCCNC(=N)N)C(=O)N[C@@H](CCCNC(=N)N)C(=O)N[C@@H](CO)C(=O)N[C@@H](C)C(=O)N[C@@H](CC(=O)O)C(=O)N[C@H](C(=O)N[C@@H](Cc1c[nH]cn1)C(=O)N[C@H](C(N)=O)[C@@H](C)CC)[C@@H](C)CC)C(C)C)[C@@H](C)O` [Compound 18] (Palmitoyl-TVFRSSE[dK]RRSADIHI-NH2): 56% and 62%.
The matching figures for `CCCCCCCCCCCCCCCC(=O)N[C@H](C(=O)N[C@H](C(=O)N[C@@H](Cc1ccccc1)C(=O)N[C@@H](CCCNC(=N)N)C(=O)N[C@@H](CO)C(=O)N[C@@H](CO)C(=O)N[C@@H](CCC(=O)O)C(=O)N[C@H](CCCCN)C(=O)N[C@@H](CCCNC(=N)N)C(=O)N[C@@H](CCCNC(=N)N)C(=O)N[C@@H](CO)C(=O)N[C@@H](C)C(=O)N[C@@H](CC(=O)O)C(=O)N[C@H](C(=O)N[C@@H](Cc1ccccc1)C(=O)N[C@@H](Cc1c[nH]cn1)C(N)=O)[C@@H](C)CC)C(C)C)[C@@H](C)O` [Compound 19] (Palmitoyl-TVFRSSE[dK]RRSADIFH-NH2): 53% and 104%.
Take `CCCCCCCCCCCCCCCC(=O)N[C@H](C(=O)N[C@@H](CCC(N)=O)C(=O)N[C@@H](Cc1ccccc1)C(=O)N[C@@H](CCCNC(=N)N)C(=O)N[C@@H](CO)C(=O)N[C@@H](CO)C(=O)N[C@@H](CCC(=O)O)C(=O)N[C@H](CCCCN)C(=O)N[C@@H](CCCNC(=N)N)C(=O)N[C@@H](CCCNC(=N)N)C(=O)N[C@@H](CO)C(=O)N[C@@H](C)C(=O)N[C@@H](CC(=O)O)C(=O)N[C@H](C(=O)N[C@@H](Cc1ccccc1)C(=O)N[C@H](C(N)=O)[C@@H](C)CC)[C@@H](C)CC)[C@@H](C)O` [Compound 21] (Palmitoyl-TQFRSSE[dK]RRSADIFI-NH2; C-terminus assumed): at APJ receptor, the response was half-maximal at 0.041 µM (EC50); the Ranking result was “*** (EC50<100 nM and % histamine>35%)”; the percent intrinsic activity at 0.3 µM came to 72%. The “Histimine (% vs. 48/40)” value in “Histimine (% vs. 48/40)” worked out at 39%.
Take `CCCCCCCCCCCCCCCC(=O)N[C@H](C(=O)N[C@H](C(=O)N[C@@H](Cc1ccccc1)C(=O)N[C@@H](CCCNC(=N)N)C(=O)N[C@@H](CO)C(=O)N[C@@H](CO)C(=O)N[C@@H](CCC(=O)O)C(=O)N[C@H](CCCCN)C(=O)N[C@@H](CCC(N)=O)C(=O)N[C@@H](CCCNC(=N)N)C(=O)N[C@@H](CO)C(=O)N[C@@H](C)C(=O)N[C@@H](CC(=O)O)C(=O)N[C@H](C(=O)N[C@@H](Cc1ccccc1)C(=O)N[C@H](C(N)=O)[C@@H](C)CC)[C@@H](C)CC)C(C)C)[C@@H](C)O` [Compound 26] (Palmitoyl-TVFRSSE[dK]QRSADIFI-NH2; C-terminus assumed): at APJ receptor, the concentration giving a half-maximal response (EC50) came to 0.112 µM; the Ranking entry was “**** (EC50 101-500 nM and % histamine<35%)”; the percent intrinsic activity at 0.3 µM came out at 6%. The “Histimine (% vs. 48/40)” value in “Histimine (% vs. 48/40)” was −1%.
With `CCCCCCCCCCCCCCCC(=O)N[C@H](C(=O)N[C@H](C(=O)N[C@@H](Cc1ccccc1)C(=O)N[C@@H](CCCNC(=N)N)C(=O)N[C@@H](CO)C(=O)N[C@@H](CO)C(=O)N[C@@H](CCC(=O)O)C(=O)N[C@H](CCCCN)C(=O)N[C@@H](CCCNC(=N)N)C(=O)N[C@@H](CCC(N)=O)C(=O)N[C@@H](CO)C(=O)N[C@@H](C)C(=O)N[C@@H](CC(=O)O)C(=O)N[C@H](C(=O)N[C@@H](Cc1ccccc1)C(=O)N[C@H](C(N)=O)[C@@H](C)CC)[C@@H](C)CC)C(C)C)[C@@H](C)O` [Compound 27] (Palmitoyl-TVFRSSE[dK]RQSADIFI-NH2), on APJ receptor, the percent intrinsic activity at 0.3 µM turned out to be 7%. The “Histimine (% vs. 48/40)” value in the series “Histimine (% vs. 48/40)” is reported as 4%.
In the same order, the values of `CCCCCCCCCCCCCCCC(=O)N[C@H](C(=O)N[C@H](C(=O)N[C@@H](Cc1ccccc1)C(=O)N[C@@H](CCCNC(=N)N)C(=O)N[C@@H](CO)C(=O)N[C@@H](CO)C(=O)N[C@@H](CCC(=O)O)C(=O)N[C@H](CCCCN)C(=O)N[C@@H](CCCNC(=N)N)C(=O)N[C@@H](CCCNC(=N)N)C(=O)N[C@@H](CO)C(=O)N[C@@H](CCC(N)=O)C(=O)N[C@@H](CC(=O)O)C(=O)N[C@H](C(=O)N[C@@H](Cc1ccccc1)C(=O)N[C@H](C(N)=O)[C@@H](C)CC)[C@@H](C)CC)C(C)C)[C@@H](C)O` [Compound 28] (Palmitoyl-TVFRSSE[dK]RRSQDIFI-NH2) are 8% and 16%.
In the same order, the values of `CCCCCCCCCCCCCCCC(=O)N[C@H](C(=O)N[C@H](C(=O)N[C@@H](Cc1ccccc1)C(=O)N[C@@H](CCCNC(=N)N)C(=O)N[C@@H](CO)C(=O)N[C@@H](CO)C(=O)N[C@@H](CCC(=O)O)C(=O)N[C@H](CCCCN)C(=O)N[C@@H](CCCNC(=N)N)C(=O)N[C@@H](CCCNC(=N)N)C(=O)N[C@@H](CO)C(=O)N[C@@H](C)C(=O)N[C@@H](CCC(N)=O)C(=O)N[C@H](C(=O)N[C@@H](Cc1ccccc1)C(=O)N[C@H](C(N)=O)[C@@H](C)CC)[C@@H](C)CC)C(C)C)[C@@H](C)O` [Compound 29] (Palmitoyl-TVFRSSE[dK]RRSAQIFI-NH2) are 9% and 92%.
